Measured values published in ChEMBL document CHEMBL3751693, “Synthesis, antimicrobial evaluation and molecular modeling of 5-hydroxyisoquinolinium salt series; the effect of the hydroxyl moiety” (Bioorg Med Chem, 2016).

Experiments:
Staphylococcus aureus [1] = assay: Antimicrobial activity against clinical isolate Staphylococcus aureus CCM 451608 after 24 hrs; assay type: functional; conditions: CCM 451608, 24 h
Staphylococcus aureus [2] = assay: Antimicrobial activity against clinical isolate Staphylococcus aureus CCM 451608 after 48 hrs; assay type: functional; conditions: CCM 451608, 48 h
Staphylococcus aureus [3] = assay: Antimicrobial activity against clinical isolate methicillin-resistant Staphylococcus aureus H 599608 after 24 hrs; assay type: functional; conditions: H 599608, 24 h
Staphylococcus aureus [4] = assay: Antimicrobial activity against clinical isolate methicillin-resistant Staphylococcus aureus H 599608 after 48 hrs; assay type: functional; conditions: H 599608, 48 h
[5] = system: Staphylococcus epidermidis; assay: Antimicrobial activity against clinical isolate Staphylococcus epidermidis H 696608 after 24 hrs; assay type: functional; conditions: H 696608, 24 h
[6] = system: Staphylococcus epidermidis; assay: Antimicrobial activity against clinical isolate Staphylococcus epidermidis H 696608 after 48 hrs; assay type: functional; conditions: H 696608, 48 h
Enterococcus sp. [7] = assay: Antimicrobial activity against clinical isolate Enterococcus sp. J 1436508 after 24 hrs; assay type: functional; conditions: J 1436508, 24 h
Enterococcus sp. [8] = assay: Antimicrobial activity against clinical isolate Enterococcus sp. J 1436508 after 48 hrs; assay type: functional; conditions: J 1436508, 48 h
Escherichia coli [9] = assay: Antimicrobial activity against clinical isolate Escherichia coli CCM 4517 after 24 hrs; assay type: functional; conditions: CCM 4517, 24 h
Escherichia coli [10] = assay: Antimicrobial activity against clinical isolate Escherichia coli CCM 4517 after 48 hrs; assay type: functional; conditions: CCM 4517, 48 h
Klebsiella pneumoniae [11] = assay: Antimicrobial activity against clinical isolate Klebsiella pneumoniae D 1175008 after 24 hrs; assay type: functional; conditions: D 1175008, 24 h
Klebsiella pneumoniae [12] = assay: Antimicrobial activity against clinical isolate Klebsiella pneumoniae D 1175008 after 48 hrs; assay type: functional; conditions: D 1175008, 48 h
Klebsiella pneumoniae [13] = assay: Antimicrobial activity against clinical isolate ESBL-Klebsiella pneumoniae J 1436808 after 24 hrs; assay type: functional; conditions: J 1436808, 24 h
Klebsiella pneumoniae [14] = assay: Antimicrobial activity against clinical isolate ESBL-Klebsiella pneumoniae J 1436808 after 48 hrs; assay type: functional; conditions: J 1436808, 48 h
Pseudomonas aeruginosa [15] = assay: Antimicrobial activity against clinical isolate Pseudomonas aeruginosa CCM 1961 after 72 hrs; assay type: functional; conditions: CCM 1961, 72 h
Pseudomonas aeruginosa [16] = assay: Antimicrobial activity against clinical isolate Pseudomonas aeruginosa CCM 1961 after 120 hrs; assay type: functional; conditions: CCM 1961, 120 h
Candida albicans [17] = assay: Antimicrobial activity against Candida albicans ATCC 44859 after 24 hrs by spectrophotometry; assay type: functional; conditions: ATCC 44859, 24 h
Aspergillus fumigatus [18] = assay: Antimicrobial activity against Aspergillus fumigatus 231 after 24 hrs by spectrophotometry; assay type: functional; conditions: Aspergillus fumigatus, 231, 24 h
Candida albicans [19] = assay: Antimicrobial activity against Candida albicans ATCC 44859 after 48 hrs by spectrophotometry; assay type: functional; conditions: ATCC 44859, 48 h
Candida tropicalis [20] = assay: Antimicrobial activity against Candida tropicalis 156 after 24 hrs by spectrophotometry; assay type: functional; conditions: Candida tropicalis, 156, 24 h
Candida tropicalis [21] = assay: Antimicrobial activity against Candida tropicalis 156 after 48 hrs by spectrophotometry; assay type: functional; conditions: Candida tropicalis, 156, 48 h
Pichia kudriavzevii [22] = assay: Antimicrobial activity against Candida krusei E28 after 24 hrs by spectrophotometry; assay type: functional; conditions: E28, 24 h
Pichia kudriavzevii [23] = assay: Antimicrobial activity against Candida krusei E28 after 48 hrs by spectrophotometry; assay type: functional; conditions: E28, 48 h
Nakaseomyces glabratus [24] = assay: Antimicrobial activity against Candida glabrata 20/I after 24 hrs by spectrophotometry; assay type: functional
Nakaseomyces glabratus [25] = assay: Antimicrobial activity against Candida glabrata 20/I after 48 hrs by spectrophotometry; assay type: functional
Trichosporon asahii [26] = assay: Antimicrobial activity against Trichosporon asahii 1188 after 24 hrs by spectrophotometry; assay type: functional; conditions: Trichosporon asahii, 1188, 24 h
Trichosporon asahii [27] = assay: Antimicrobial activity against Trichosporon asahii 1188 after 48 hrs by spectrophotometry; assay type: functional; conditions: Trichosporon asahii, 1188, 48 h
Aspergillus fumigatus [28] = assay: Antimicrobial activity against Aspergillus fumigatus 231 after 48 hrs by spectrophotometry; assay type: functional; conditions: Aspergillus fumigatus, 231, 48 h
Lichtheimia corymbifera [29] = assay: Antimicrobial activity against Absidia corymbifera 272 after 24 hrs by spectrophotometry; assay type: functional; conditions: Lichtheimia corymbifera, 272, 24 h
Lichtheimia corymbifera [30] = assay: Antimicrobial activity against Absidia corymbifera 272 after 48 hrs by spectrophotometry; assay type: functional; conditions: Lichtheimia corymbifera, 272, 48 h
[31] = system: Trichophyton mentagrophytes; assay: Antimicrobial activity against Trichophyton mentagrophytes 445 after 72 hrs by spectrophotometry; assay type: functional; conditions: Trichophyton mentagrophytes, 445, 72 h
[32] = system: Trichophyton mentagrophytes; assay: Antimicrobial activity against Trichophyton mentagrophytes 445 after 120 hrs by spectrophotometry; assay type: functional; conditions: Trichophyton mentagrophytes, 445, 120 h
[33] = Cytotoxicity against CHOK1 cells after 24 hrs by MTT assay; assay type: cell-based; conditions: Cricetulus griseus, CHO-K1, 24 h

CCCCCCCCCCCCCC[n+]1ccc2ccccc2c1
MIC (Staphylococcus aureus [1]): 0.5 µM
MBC (Staphylococcus aureus [2]): 1 µM
MIC (Staphylococcus aureus [2]): 0.5 µM
MIC (Staphylococcus aureus [3]): 0.5 µM
MBC (Staphylococcus aureus [4]): 1 µM
MIC (Staphylococcus aureus [4]): 0.5 µM
MIC [5]: 0.5 µM
MBC [6]: 1 µM
MIC [6]: 0.5 µM
MIC (Enterococcus sp. [7]): 0.5 µM
MBC (Enterococcus sp. [8]): 3.9 µM
MIC (Enterococcus sp. [8]): 0.5 µM
MIC (Escherichia coli [9]): 2 µM
MBC (Escherichia coli [10]): 3.9 µM
MIC (Escherichia coli [10]): 2 µM
MIC (Klebsiella pneumoniae [11]): 3.9 µM
MBC (Klebsiella pneumoniae [12]): 3.9 µM
MIC (Klebsiella pneumoniae [12]): 3.9 µM
MIC (Klebsiella pneumoniae [13]): 31 µM
MBC (Klebsiella pneumoniae [14]): 31 µM
MIC (Klebsiella pneumoniae [14]): 31 µM
MIC (Pseudomonas aeruginosa [15]): 63 µM
MBC (Pseudomonas aeruginosa [16]): 63 µM
MIC (Pseudomonas aeruginosa [16]): 63 µM
MIC (Candida albicans [17]): 0.5 µM
MIC (Aspergillus fumigatus [18]): 7.8 µM
MFC (Candida albicans [19]): 1 µM
MIC (Candida albicans [19]): 0.5 µM
MIC (Candida tropicalis [20]): 0.5 µM
MFC (Candida tropicalis [21]): 1 µM
MIC (Candida tropicalis [21]): 0.5 µM
MIC (Pichia kudriavzevii [22]): 0.5 µM
MFC (Pichia kudriavzevii [23]): 1 µM
MIC (Pichia kudriavzevii [23]): 0.5 µM
MIC (Nakaseomyces glabratus [24]): 0.5 µM
MFC (Nakaseomyces glabratus [25]): 3.9 µM
MIC (Nakaseomyces glabratus [25]): 0.5 µM
MIC (Trichosporon asahii [26]): 3.9 µM
MFC (Trichosporon asahii [27]): 3.9 µM
MIC (Trichosporon asahii [27]): 3.9 µM
MFC (Aspergillus fumigatus [28]): 7.8 µM
MIC (Aspergillus fumigatus [28]): 7.8 µM
MIC (Lichtheimia corymbifera [29]): 31 µM
MFC (Lichtheimia corymbifera [30]): 250 µM
MIC (Lichtheimia corymbifera [30]): 31 µM
MIC [31]: 3.9 µM
MFC [32]: 16 µM
MIC [32]: 3.9 µM
IC50 [33]: 9 µM

CCCCCCCCCCCCCCCC[n+]1ccc2ccccc2c1
MIC (Staphylococcus aureus [1]): 1 µM
MBC (Staphylococcus aureus [2]): 2 µM
MIC (Staphylococcus aureus [2]): 1 µM
MIC (Staphylococcus aureus [3]): 1 µM
MBC (Staphylococcus aureus [4]): 2 µM
MIC (Staphylococcus aureus [4]): 1 µM
MIC [5]: 0.5 µM
MBC [6]: 2 µM
MIC [6]: 0.5 µM
MIC (Enterococcus sp. [7]): 1 µM
MBC (Enterococcus sp. [8]): 3.9 µM
MIC (Enterococcus sp. [8]): 1 µM
MIC (Escherichia coli [9]): 3.9 µM
MBC (Escherichia coli [10]): 3.9 µM
MIC (Escherichia coli [10]): 3.9 µM
MIC (Klebsiella pneumoniae [11]): 3.9 µM
MBC (Klebsiella pneumoniae [12]): 7.8 µM
MIC (Klebsiella pneumoniae [12]): 3.9 µM
MIC (Klebsiella pneumoniae [13]): 7.8 µM
MBC (Klebsiella pneumoniae [14]): 31 µM
MIC (Klebsiella pneumoniae [14]): 7.8 µM
MIC (Pseudomonas aeruginosa [15]): 125 µM
MBC (Pseudomonas aeruginosa [16]): 125 µM
MIC (Pseudomonas aeruginosa [16]): 125 µM
MIC (Candida albicans [17]): 2 µM
MIC (Aspergillus fumigatus [18]): 3.9 µM
MFC (Candida albicans [19]): 2 µM
MIC (Candida albicans [19]): 2 µM
MIC (Candida tropicalis [20]): 2 µM
MFC (Candida tropicalis [21]): 2 µM
MIC (Candida tropicalis [21]): 2 µM
MIC (Pichia kudriavzevii [22]): 2 µM
MFC (Pichia kudriavzevii [23]): 2 µM
MIC (Pichia kudriavzevii [23]): 2 µM
MIC (Nakaseomyces glabratus [24]): 2 µM
MFC (Nakaseomyces glabratus [25]): 2 µM
MIC (Nakaseomyces glabratus [25]): 2 µM
MIC (Trichosporon asahii [26]): 3.9 µM
MFC (Trichosporon asahii [27]): 3.9 µM
MIC (Trichosporon asahii [27]): 3.9 µM
MFC (Aspergillus fumigatus [28]): 3.9 µM
MIC (Aspergillus fumigatus [28]): 3.9 µM
MIC (Lichtheimia corymbifera [29]): 16 µM
MFC (Lichtheimia corymbifera [30]): 125 µM
MIC (Lichtheimia corymbifera [30]): 16 µM
MIC [31]: 2 µM
MFC [32]: 7.8 µM
MIC [32]: 2 µM
IC50 [33]: 7 µM

CCCCCCCCCCCCCCCCCC[n+]1ccc2ccccc2c1
MIC (Staphylococcus aureus [1]): 0.5 µM
MBC (Staphylococcus aureus [2]): 2 µM
MIC (Staphylococcus aureus [2]): 0.5 µM
MIC (Staphylococcus aureus [3]): 0.5 µM
MBC (Staphylococcus aureus [4]): 2 µM
MIC (Staphylococcus aureus [4]): 0.5 µM
MIC [5]: 0.5 µM
MBC [6]: 2 µM
MIC [6]: 0.5 µM
MIC (Enterococcus sp. [7]): 2 µM
MBC (Enterococcus sp. [8]): 2 µM
MIC (Enterococcus sp. [8]): 2 µM
MIC (Escherichia coli [9]): 31 µM
MBC (Escherichia coli [10]): 31 µM
MIC (Escherichia coli [10]): 31 µM
MIC (Klebsiella pneumoniae [11]): 63 µM
MBC (Klebsiella pneumoniae [12]): 63 µM
MIC (Klebsiella pneumoniae [12]): 63 µM
MIC (Klebsiella pneumoniae [13]): 63 µM
MBC (Klebsiella pneumoniae [14]): 250 µM
MIC (Klebsiella pneumoniae [14]): 63 µM
MIC (Pseudomonas aeruginosa [15]): 125 µM
MBC (Pseudomonas aeruginosa [16]): 250 µM
MIC (Pseudomonas aeruginosa [16]): 125 µM
MIC (Candida albicans [17]): 2 µM
MIC (Aspergillus fumigatus [18]): 63 µM
MFC (Candida albicans [19]): 2 µM
MIC (Candida albicans [19]): 2 µM
MIC (Candida tropicalis [20]): 2 µM
MFC (Candida tropicalis [21]): 2 µM
MIC (Candida tropicalis [21]): 2 µM
MIC (Pichia kudriavzevii [22]): 2 µM
MFC (Pichia kudriavzevii [23]): 2 µM
MIC (Pichia kudriavzevii [23]): 2 µM
MIC (Nakaseomyces glabratus [24]): 1 µM
MFC (Nakaseomyces glabratus [25]): 2 µM
MIC (Nakaseomyces glabratus [25]): 1 µM
MIC (Trichosporon asahii [26]): 2 µM
MFC (Trichosporon asahii [27]): 2 µM
MIC (Trichosporon asahii [27]): 2 µM
MFC (Aspergillus fumigatus [28]): 63 µM
MIC (Aspergillus fumigatus [28]): 63 µM
MIC (Lichtheimia corymbifera [29]): 7.8 µM
MFC (Lichtheimia corymbifera [30]): 63 µM
MIC (Lichtheimia corymbifera [30]): 7.8 µM
MIC [31]: 2 µM
MFC [32]: 31 µM
MIC [32]: 2 µM
IC50 [33]: 6 µM

CCCCCCCCCCCCCCCCCC[n+]1ccc2c(O)cccc2c1
IC50 [33]: 7 µM
